Experiments:
Experiment in all cases: relative viability (nuclei count vs DMSO), 5 days (fraction); higher = more cells survive
[1] = compound: C1=CC2=C(C=C(C(=C2N=C1)O)N=NC3=CC4=C(C=C3)C=C(C=C4)S(=O)(=O)O)S(=O)(=O)O + COc1cc2c(Oc3ccc(NC(=O)C4(C(=O)Nc5ccc(F)cc5)CC4)cc3F)ccnc2cc1OCCCN1CCOCC1 [Foretinib] (partner 0.25 µM)
Method in brief: (§1)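 Nuclei were stained with Hoechst during a one-step fixation (final 0.05% Triton X-100, 1% formaldehyde, 1 ug/ml Hoechst) carried out 5 days after dosing, then counted on 4× images. The cells, lung cancer lines in 1536-well plates, had been dosed by pin tool the day after seeding with one drug alone or a fixed anchor-drug dose plus five library-drug doses (not always all listed) in √10 steps. Relative viability is the nuclei count in treated wells divided by that in vehicle wells, and each value is the median of duplicate plates.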

AT-7519 + OSI-027 = compound: O=C(NC1CCNCC1)c1n[nH]cc1NC(=O)c1c(Cl)cccc1Cl [AT-7519] + COc1cccc2cc(-c3nc([C@H]4CC[C@H](C(=O)O)CC4)n4ncnc(N)c34)[nH]c12 [OSI-027] (partner 0.5 µM)
Method in brief: as §1

[2] = compound: C1=CC2=C(C=C(C(=C2N=C1)O)N=NC3=CC4=C(C=C3)C=C(C=C4)S(=O)(=O)O)S(=O)(=O)O + CS(=O)(=O)CCNCc1ccc(-c2ccc3ncnc(Nc4ccc(OCc5cccc(F)c5)c(Cl)c4)c3c2)o1 [Lapatinib] (partner 2 µM)
Method in brief: as §1

AT-7519 + AZD7762 = compound: O=C(NC1CCNCC1)c1n[nH]cc1NC(=O)c1c(Cl)cccc1Cl [AT-7519] + NC(=O)Nc1cc(-c2cccc(F)c2)sc1C(=O)N[C@H]1CCCNC1 [AZD7762] (partner 0.2 µM)
Method in brief: as §1

Cell Line	relative viability ([1]; first compound 0.08 µM)	relative viability ([1]; first compound 0.253 µM)	relative viability ([1]; first compound 0.8 µM)	relative viability ([1]; first compound 2.53 µM)	relative viability ([1]; first compound 8 µM)	relative viability (AT-7519 + OSI-027; first compound 0.01 µM)	relative viability (AT-7519 + OSI-027; first compound 0.03162 µM)	relative viability (AT-7519 + OSI-027; first compound 0.3162 µM)	relative viability (AT-7519 + OSI-027; first compound 1 µM)	relative viability ([2]; first compound 0.08 µM)	relative viability ([2]; first compound 0.253 µM)	relative viability ([2]; first compound 0.8 µM)	relative viability ([2]; first compound 2.53 µM)	relative viability ([2]; first compound 8 µM)	relative viability (AT-7519 + AZD7762; first compound 0.01 µM)	relative viability (AT-7519 + AZD7762; first compound 0.03162 µM)	relative viability (AT-7519 + AZD7762; first compound 0.3162 µM)	relative viability (AT-7519 + AZD7762; first compound 1 µM)
NCI-H1666	1.05	0.962	0.962	0.958	0.747	0.825	0.82	0.838	0.652	0.768	0.606	0.473	0.718	0.618	0.852	0.818	0.917	0.863
NCI-H1734	0.916	0.892	0.777	0.891	0.88	0.521	0.543	0.445	0.397	1.13	1.03	1.05	0.911	1.09	0.519	0.493	0.655	0.453
NCI-H1755	0.915	0.916	0.869	0.944	0.89	0.66	0.655	0.705	0.699	1.06	1.04	1.01	1.05	1.05	0.427	0.461	0.629	0.428
NCI-H1793	0.539	0.606	0.674	0.749	0.71	0.229	0.254	0.285	0.247	0.769	1		0.651	0.59	0.578	0.573	0.409	0.543
NCI-H1915	1.12	1.04	1.09	1.13	1.12	0.406	0.598	0.521	0.394	1.06	1.01	1	0.883	1.02	0.704	0.689	0.773	0.782
NCI-H1944	0.899	0.937	0.93	0.769	0.748	0.436	0.402	0.367	0.328	0.8	0.753	0.765	0.753	0.565	0.528	0.472	0.699	0.479
NCI-H1975	0.912	1.02	0.916	1.04	0.952	0.827	0.778	0.503	0.191	1.08	0.883	0.833	0.987	0.861	0.691	0.744	0.76	0.638
NCI-H1993	0.766	0.78	0.825	0.734	0.643	0.569	0.494	0.49	0.563	0.82	0.71	0.801	0.723	0.589	0.671	0.637	0.736	0.38
NCI-H2085	1.08	0.886	0.894	0.963	0.634	0.739	0.662	0.626	0.651	0.915	0.783	0.749	0.818	0.842	0.977	0.984	0.986	1.02
NCI-H2087	1.07	1.14	0.873	1.1	0.921	0.729	0.649	0.493	0.151	1.16	0.981	1.02	1.03	1.02	1.48	1.13	1.49	0.58
NCI-H2126	1.22	1.16	1.22	1.25	1.15	0.668	0.665	0.575	0.688	0.808	0.723	0.723	0.777	0.759	1	1.1	1.04	1.13
NCI-H2170	1.05	0.925	0.958	0.799	0.954	0.782	0.685	0.687	0.719	0.267	0.272	0.271	0.292	0.286	0.906	0.892	0.954	0.75
NCI-H2347	1.07	1.12	0.766	1.13	0.801	0.457	0.389	0.358	0.229	1.05	0.921	0.839	0.882	0.824	0.625	0.843	0.725	0.469
NCI-H2405	1.1	1.04	1.06	1.03	1.04	0.593	0.655	0.595	0.478	1.04	1.07	0.979	1.02	1	0.732	0.724	0.683	0.527
NCI-H3122	0.967	0.977	0.925	0.982	0.973	1.09	0.871	0.357	0.152	0.99	0.982	1.04	0.947	1.01	1.01	1.11	1.02	0.752
PC-3 [JPC-3]	1.1	1.03	1.08	0.99	0.951	0.706	0.904	0.697	0.696	0.483	0.474	0.484	0.445	0.426	0.908	0.844	0.671	0.992
PC-14	1.16	0.905	0.815	0.971	1.11	0.725	0.701	0.691	0.125	0.369	0.333	0.322	0.357	0.329	0.416	0.261	0.38	0.44

Reference: the supplement of paper PMC10307832
